# Results taken from article PMC8546421, “Molecular modelling of the FOXO4-TP53 interaction to design senolytic peptides for the elimination of senescent cancer cells” (EBioMedicine, 2021).
# Where no end group is shown, it is not given here.
# How the values were obtained:
# [1] = system: dividing A375 human melanoma cells; test: Survival study, orthotopic A375 xenograft; assay type: in vivo, mouse; settings: local injection once daily for two days
# From the text: Mice were aged between 3-8 months and 20-30 g in weight and were housed in specific pathogen free cages. Animals were randomly distributed among treatment groups by assigning mice within the same cage to different treatment regimens. To minimise confounders, mouse treatment order was randomised within each cage. Male and female mice were distributed between all treatment groups since the chemicals used were directly injected and are not metabolized. Researchers were not blinded to the group allocation, but all attempts were made to analyse the data without knowing treatment conditions. NOD.Cg-Prkdcscid Il2rgtm1Wjl/SzJ (NSG) were purchased from The Jackson Laboratory (IMSR Cat# JAX:005557, RRID:IMSR_JAX:005557). NOD.Cg-KitW-41J Tyr + Prkdcscid Il2rgtm1Wjl/ThomJ (NBSGW) were purchased from The Jackson Laboratory (IMSR Cat# JAX:026622, RRID:IMSR_JAX:026622). Immunocompromised mice used for these experiments were all in the NSG background; however, some mice were F1 generation of NSG x NBSGW, thus the brown coat colour as NBSGW mice have tyrosinase. Xenografts containing senescent cells were established by injecting A375-Luc/iRFP human melanoma cells which contained a luciferase expressing gene into immunocompromised NSG ears. Senescence was induced in the cells via doxorubicin treatment (40 nM) then resuspended in DMEM prior to injection. Each ear was then injected with 50 µL containing approximately 1,000,000 cells. The ears were treated once daily for two days with 50 µL of either 5 mg/mL peptide, or saline. To control for confounders, each mouse contained one ear treated with saline (control). For imaging, mice were injected with 3 mg luciferin intravenously and imaged before and after treatment. Transgenic mice (BrafCA, PtenloxP, Tyr::CreERT2) were purchased from The Jackson Laboratory (IMSR Cat# JAX:013590, RRID:IMSR_JAX:013590). These mice were maintained on a C57Bl6 background and all experimental mice contained Tyr::CreER with either Braf^CA/+, Pten^fx/+; Braf^CA/CA, Pten^fx/+, or Braf^CA/+, Pten^fx/fx. […] Hypopigmented melanomas sporadically formed over the next 3-5 months, typically on the back of the mouse. These melanomas were then directly injected with 100 µL of either 20 mg/mL ES2+10%DMSO, saline+10%DMSO, saline+10%Dabrafenib, or 20 mg/mL ES2+10%Dabrafenib. The researchers were not blinded to the experiment, but each mouse contained an internal control and all imaging was done with the same exposure times based upon control tissue. For survival analyses, either 750,000 or 25,000 A375-Luc/iRFP cells were injected intradermally into NSG mice. […] Mice were then monitored daily and allowed to age until a humane endpoint was reached according to our IACUC protocol, which in this case was tumours of 2 cm in size. […]
# [2] = system: A375, B16F10, HCT116, MCF7, IMR90 and MCF10A cells; test: ES2 viability (MTS) in cell line panel, senescent vs dividing; assay type: cell-based
# Protocol: Cell lines were treated with chemotherapy, doxorubicin (Sigma, Cat. No. 2252) to induce senescence (200 nM for HCT116, 100 nM for B16-F10 and MCF7, 50 nM for SW480 and DLD-1, 40 nM for A375-Luc/iRFP and MCF10a). MCF7 cells were treated with CDK4/6 inhibitor, palbociclib (Selleck Chemicals: S1116) to induce senescence (5 µM). A375 cells were treated with Braf inhibitor, Dabrafenib (Selleck Chemicals: S2807), to induce senescence (10 µM). Peptide efficacy experiments were performed by seeding 10,000 – 20,000 cells in a 96-well plate. The cells were given doxorubicin twice to make the cells senescent. After removal of doxorubicin, the plate was treated with varying concentrations of peptide. The peptide was replenished daily for two days. Cellular proliferation was quantified using the Promega CellTiter 96™ AQueous One Solution Cell Proliferation Assay (MTS) after 2 hours according to the manufacturer's protocol (Promega, G3581). To control for the charge of ES2, ProteoJuice (Millipore Sigma, 71281) was used to deliver ES2 using the manufacturers protocol, except 50 µL of 2 mM ES2 was mixed with 25 µL of ProteoJuice. Varying concentrations of the mixture were administered to A375 cells along with a control of only ProteoJuice.
sequence,measurement,setting,value
PRKGGRRRRAWGRRRRRRRRRRRRRRAPRKRLTLA [ES2],"effect on survival time, in words","[1]; 25,000 A375 cells",no effect on survival time
same,"effect on survival time, in words","[1]; 750,000 A375 cells",did not alter survival times
same,"concentration of ES2 resulting in cell death, doxorubicin vs other pro-senescence agents","[2]; A375 with Dabrafenib, MCF7 with Palbociclib",no difference in concentration of ES2 resulting in cell death
same,IC50 in dividing cells relative to senescent cells,"[2]; doxorubicin-induced senescence, all cell lines",at least 3 times
